Experimental data as given in ChEMBL document CHEMBL4665869, “New thiazolopyrimidine as anticancer agents: Synthesis, biological evaluation, DNA binding, molecular modeling and ADMET study” (Bioorg Med Chem Lett, 2020).
In brackets after ≈: the same amount, converted by molar mass.

Key:
DNA = test: Displacement of methyl green from DNA (unknown origin) assessed as DNA intercalation after 24 hrs by colorimetric assay; format: nucleic-acid assay
SW-620 = test: Growth inhibition of human SW-620 cells at 10 uM relative to control; format: functional; settings: read-out: GI
CAKI-1 = test: Growth inhibition of human CAKI-1 cells at 10 uM relative to control; format: functional; settings: read-out: GI
OVCAR-8 = test: Growth inhibition of human OVCAR-8 cells at 10 uM relative to control; format: functional; settings: read-out: GI
NCI-H522 = test: Growth inhibition of human NCI-H522 cells at 10 uM relative to control; format: functional; settings: read-out: GI
MDA-MB-231 = test: Growth inhibition of human MDA-MB-231 cells at 10 uM relative to control; format: functional; settings: read-out: GI
HOP-92 = test: Growth inhibition of human HOP-92 cells at 10 uM relative to control; format: functional; settings: read-out: GI
MCF7 = test: Growth inhibition of human MCF7 cells at 10 uM relative to control; format: functional; settings: read-out: GI
UACC-257 = test: Growth inhibition of human UACC-257 cells at 10 uM relative to control; format: functional; settings: read-out: GI
NCI/ADR-RES = test: Growth inhibition of human NCI/ADR-RES cells at 10 uM relative to control; format: functional; settings: read-out: GI
NCI-H226 = test: Growth inhibition of human NCI-H226 cells at 10 uM relative to control; format: functional; settings: read-out: GI
Hs-578T = test: Growth inhibition of human Hs-578T cells at 10 uM relative to control; format: functional; settings: read-out: GI
CCRF-CEM = test: Growth inhibition of human CCRF-CEM cells at 10 uM relative to control; format: functional; settings: read-out: GI
OVCAR-4 = test: Growth inhibition of human OVCAR-4 cells at 10 uM relative to control; format: functional; settings: read-out: GI
SK-OV-3 = test: Growth inhibition of human SK-OV-3 cells at 10 uM relative to control; format: functional; settings: read-out: GI
IGROV-1 = test: Growth inhibition of human IGROV-1 cells at 10 uM relative to control; format: functional; settings: read-out: GI
NCI-H460 = test: Growth inhibition of human NCI-H460 cells at 10 uM relative to control; format: functional; settings: read-out: GI
RXF 393 = test: Growth inhibition of human RXF 393 cells at 10 uM relative to control; format: functional; settings: read-out: GI
T47D = test: Growth inhibition of human T47D cells at 10 uM relative to control; format: functional; settings: read-out: GI
SN12C = test: Growth inhibition of human SN12C cells at 10 uM relative to control; format: functional; settings: read-out: GI
A498 = test: Growth inhibition of human A498 cells at 10 uM relative to control; format: functional; settings: read-out: GI
K562 = test: Growth inhibition of human K562 cells at 10 uM relative to control; format: functional; settings: read-out: GI
SF-539 = test: Growth inhibition of human SF-539 cells at 10 uM relative to control; format: functional; settings: read-out: GI
ACHN = test: Growth inhibition of human ACHN cells at 10 uM relative to control; format: functional; settings: read-out: GI
UACC-62 = test: Growth inhibition of human UACC-62 cells at 10 uM relative to control; format: functional; settings: read-out: GI
COLO 205 = test: Growth inhibition of human COLO 205 cells at 10 uM relative to control; format: functional; settings: read-out: GI
A549 = test: Growth inhibition of human A549 cells at 10 uM relative to control; format: functional; settings: read-out: GI
SF-268 = test: Growth inhibition of human SF-268 cells at 10 uM relative to control; format: functional; settings: read-out: GI
HL-60(TB) = test: Growth inhibition of human HL-60(TB) cells at 10 uM relative to control; format: functional; settings: read-out: GI
NCI-H322M = test: Growth inhibition of human NCI-H322M cells at 10 uM relative to control; format: functional; settings: read-out: GI
HCT-15 = test: Growth inhibition of human HCT-15 cells at 10 uM relative to control; format: functional; settings: read-out: GI
MDA-MB-435 = test: Growth inhibition of human MDA-MB-435 cells at 10 uM relative to control; format: functional; settings: read-out: GI
RPMI-8226 = test: Growth inhibition of human RPMI-8226 cells at 10 uM relative to control; format: functional; settings: read-out: GI
U-251 = test: Growth inhibition of human U-251 cells at 10 uM relative to control; format: functional; settings: read-out: GI
LOX IMVI = test: Growth inhibition of human LOX IMVI cells at 10 uM relative to control; format: functional; settings: read-out: GI
DU-145 = test: Growth inhibition of human DU-145 cells at 10 uM relative to control; format: functional; settings: read-out: GI
SK-MEL-5 = test: Growth inhibition of human SK-MEL-5 cells at 10 uM relative to control; format: functional; settings: read-out: GI
TK-10 = test: Growth inhibition of human TK-10 cells at 10 uM relative to control; format: functional; settings: read-out: GI
SNB-75 = test: Growth inhibition of human SNB-75 cells at 10 uM relative to control; format: functional; settings: read-out: GI
SF-295 = test: Growth inhibition of human SF-295 cells at 10 uM relative to control; format: functional; settings: read-out: GI
HCC 2998 = test: Growth inhibition of human HCC 2998 cells at 10 uM relative to control; format: functional; settings: read-out: GI
MOLT-4 = test: Growth inhibition of human MOLT-4 cells at 10 uM relative to control; format: functional; settings: read-out: GI
M14 = test: Growth inhibition of human M14 cells at 10 uM relative to control; format: functional; settings: read-out: GI
SNB-19 = test: Growth inhibition of human SNB-19 cells at 10 uM relative to control; format: functional; settings: read-out: GI
KM12 = test: Growth inhibition of human KM12 cells at 10 uM relative to control; format: functional; settings: read-out: GI
HT-29 = test: Growth inhibition of human HT-29 cells at 10 uM relative to control; format: functional; settings: read-out: GI
Malme-3M = test: Growth inhibition of human Malme-3M cells at 10 uM relative to control; format: functional; settings: read-out: GI
SK-MEL-28 = test: Growth inhibition of human SK-MEL-28 cells at 10 uM relative to control; format: functional; settings: read-out: GI
UO-31 = test: Growth inhibition of human UO-31 cells at 10 uM relative to control; format: functional; settings: read-out: GI
HOP-62 = test: Growth inhibition of human HOP-62 cells at 10 uM relative to control; format: functional; settings: read-out: GI
SR = test: Growth inhibition of human SR cells at 10 uM relative to control; format: functional; settings: read-out: GI
MDA-MB-468 = test: Growth inhibition of human MDA-MB-468 cells at 10 uM relative to control; format: functional; settings: read-out: GI
786-0 = test: Growth inhibition of human 786-0 cells at 10 uM relative to control; format: functional; settings: read-out: GI
BT-549 = test: Growth inhibition of human BT-549 cells at 10 uM relative to control; format: functional; settings: read-out: GI
NCI-H23 = test: Growth inhibition of human NCI-H23 cells at 10 uM relative to control; format: functional; settings: read-out: GI
HCT-116 = test: Growth inhibition of human HCT-116 cells at 10 uM relative to control; format: functional; settings: read-out: GI
OVCAR-5 = test: Growth inhibition of human OVCAR-5 cells at 10 uM relative to control; format: functional; settings: read-out: GI
SK-MEL-2 = test: Growth inhibition of human SK-MEL-2 cells at 10 uM relative to control; format: functional; settings: read-out: GI

CC1=CN2C(=NC(/C=C/c3cccs3)=CC2c2cccs2)S1 (centres undefined)
IC50 (DNA): 76.15 µg/mL (≈ 222 µM)

COc1ccc(/C=C/C2=CC(c3ccc(OC)c(OC)c3)N3C=CSC3=N2)cc1OC (centres undefined)
inhibition of growth at 10 µM (SW-620): < 10% | inhibition of growth at 10 µM (CAKI-1): < 10% | inhibition of growth at 10 µM (OVCAR-8): < 10% | inhibition of growth at 10 µM (NCI-H522): < 10% | inhibition of growth at 10 µM (MDA-MB-231): < 10% | inhibition of growth at 10 µM (HOP-92): < 10% | inhibition of growth at 10 µM (MCF7): < 10% | inhibition of growth at 10 µM (UACC-257): 12.8% | inhibition of growth at 10 µM (NCI/ADR-RES): < 10% | inhibition of growth at 10 µM (NCI-H226): < 10% | inhibition of growth at 10 µM (Hs-578T): < 10% | inhibition of growth at 10 µM (CCRF-CEM): < 10% | inhibition of growth at 10 µM (OVCAR-4): < 10% | inhibition of growth at 10 µM (SK-OV-3): < 10% | inhibition of growth at 10 µM (IGROV-1): < 10% | inhibition of growth at 10 µM (NCI-H460): < 10% | inhibition of growth at 10 µM (RXF 393): < 10% | inhibition of growth at 10 µM (T47D): < 10% | inhibition of growth at 10 µM (SN12C): < 10% | inhibition of growth at 10 µM (A498): 25.6% | inhibition of growth at 10 µM (K562): < 10% | inhibition of growth at 10 µM (SF-539): < 10% | inhibition of growth at 10 µM (ACHN): < 10% | inhibition of growth at 10 µM (UACC-62): < 10% | inhibition of growth at 10 µM (COLO 205): < 10% | IC50 (DNA): 30.05 µg/mL (≈ 68.8 µM) | inhibition of growth at 10 µM (A549): < 10% | inhibition of growth at 10 µM (SF-268): < 10% | inhibition of growth at 10 µM (HL-60(TB)): < 10% | inhibition of growth at 10 µM (NCI-H322M): < 10% | inhibition of growth at 10 µM (HCT-15): < 10% | inhibition of growth at 10 µM (MDA-MB-435): < 10% | inhibition of growth at 10 µM (RPMI-8226): < 10% | inhibition of growth at 10 µM (U-251): < 10% | inhibition of growth at 10 µM (LOX IMVI): < 10% | inhibition of growth at 10 µM (DU-145): < 10% | inhibition of growth at 10 µM (SK-MEL-5): < 10% | inhibition of growth at 10 µM (TK-10): < 10% | inhibition of growth at 10 µM (SNB-75): < 10% | inhibition of growth at 10 µM (SF-295): < 10% | inhibition of growth at 10 µM (HCC 2998): < 10% | inhibition of growth at 10 µM (MOLT-4): < 10% | inhibition of growth at 10 µM (M14): < 10% | inhibition of growth at 10 µM (SNB-19): < 10% | inhibition of growth at 10 µM (KM12): < 10% | inhibition of growth at 10 µM (HT-29): < 10% | inhibition of growth at 10 µM (Malme-3M): < 10% | inhibition of growth at 10 µM (SK-MEL-28): < 10% | inhibition of growth at 10 µM (UO-31): 11.3% | inhibition of growth at 10 µM (HOP-62): < 10% | inhibition of growth at 10 µM (SR): 13.8% | inhibition of growth at 10 µM (MDA-MB-468): < 10% | inhibition of growth at 10 µM (786-0): < 10% | inhibition of growth at 10 µM (BT-549): < 10% | inhibition of growth at 10 µM (NCI-H23): < 10% | inhibition of growth at 10 µM (HCT-116): < 10% | inhibition of growth at 10 µM (OVCAR-5): < 10% | inhibition of growth at 10 µM (SK-MEL-2): < 10%

CCOC(=O)C1=CSC2=NC(/C=C/c3ccc(OC)cc3)=CC(c3ccc(OC)cc3)N12 (centres undefined)
IC50 (DNA): 28.38 µg/mL (≈ 63.3 µM)

COc1cc(/C=C/C2=CC(c3cc(OC)c(OC)c(OC)c3)N3C=CSC3=N2)cc(OC)c1OC (centres undefined)
IC50 (DNA): 55.42 µg/mL (≈ 112 µM)

Clc1ccc(/C=C/C2=CC(c3ccc(Cl)cc3)N3C=CSC3=N2)cc1 (centres undefined)
IC50 (DNA): 56.33 µg/mL (≈ 146 µM)

CC1=CSC2=NC(/C=C/c3ccc(Cl)cc3)=CC(c3ccc(Cl)cc3)N12 (centres undefined)
IC50 (DNA): 50.91 µg/mL (≈ 127 µM)

CC1=CSC2=NC(/C=C/c3ccc(C)cc3)=CC(c3ccc(C)cc3)N12 (centres undefined)
IC50 (DNA): 83.41 µg/mL (≈ 233 µM)
